Test results taken from PMC9518609, “Design and synthesis of new trimethoxylphenyl-linked combretastatin analogues loaded on diamond nanoparticles as a panel for ameliorated solubility and antiproliferative activity” (Journal of Enzyme Inhibition and Medicinal Chemistry, 2022).

Tests used:
MDA-MB-231 = test: MTT cytotoxic activity against breast MDA-MB-231 cancer cell line; format: cell-based; conditions: Homo sapiens, MDA-MB-231; MTT assay, 24 h treatment
From the text: All the synthesised compounds were screened for their cytotoxic activity against breast MDA-MB-231 cancer cell line and compounds 6 and 12 against breast MCF-10A cell line taking CA-4 as a positive control for the analysis. The in vitro cytotoxicity results of the prepared compounds were systematised in Table 1. […] Structurally, the prepared molecules contain three structural variations; including rotatable hydrazide derivatives, the core exchange with imidazolone ring, and the ring expansion with triazinone motif. […] It is noticed that directly attached benzene ring to triazinone scaffold (compound 6) or bioisosteric group (thiazolyl ester) as in compound 12, may contribute to the astonishing cytotoxicity against breast MDA-MB-231 cancer cells.
To measure the cytotoxic activity of the synthesised derivatives 2a–13e in breast cancer (MDA-MB-231) cell line. MTT assay method was applied to assess cell viability assay. All experimental steps were conducted as reported earlier.
Part I: Biological Studies
4.3. Biological evaluation
4.3.1. Cytotoxic activity evaluation
The cytotoxic actvity of the synthesized derivatives 2a-13e was measured in MDA-MB-231 breast cancer cell line and derivatives 6 and 12 in MCF-10A […].
Cell viability assay was assessed using MTT assay method. Cells at density of 1 x 104 were seeded in a 96-well plate at 37 °C for 24 h under 5% CO2. After incubation, the cells were treated with different concentrations of the test schiff bases 2a-13e and incubated for 24 h, then 20 µl of MTT solution at 5 mg/mL was applied and incubated for 4 h at 37 °C.
Dimethyl sulphoxide (DMSO) in volume of 100 µl was added to each well to dissolve the purple formazan that had formed. The color intensity of the formazan product, which represents the growth condition of the cells, is quantified by using an ELISA plate reader (EXL 800, USA) at 570 nm absorbance. The experimental conditions were carried out with at least three replicates, and the experiments were repeated at least three times. […]

Row | SMILES | IC50 (MDA-MB-231) [µM] | melting point [°C]
1 | COc1cc(C(=O)N/C=C(\C(=O)NNc2nc(-c3ccccc3)cs2)c2cc(OC)c(OC)c(OC)c2)cc(OC)c1OC [Compound 11a, 3,4,5-Trimethoxy-N-(3-oxo-3-(2-(4-arylthiazol-2-yl)hydrazinyl)-1-(3,4,5-trimethoxyphenyl)prop-1-en-2-yl)benzamide] | 6.21 ± 0.47 | 212 to 214
2 | COc1cc(C=C(NC(=O)c2cc(OC)c(OC)c(OC)c2)C(=O)NNC(=S)Nc2ccccc2)cc(OC)c1OC [Compound 3, 3,4,5-trimethoxy-N-(3-oxo-3-(2-(phenylcarbamothioyl)hydrazinyl)-1-(3,4,5-trimethoxyphenyl)prop-1-en-2-yl)benzamide] | 14.9 ± 0.8 | 212 to 214
3 | COc1cc(C=C(NC(=O)c2cc(OC)c(OC)c(OC)c2)C(=O)NNC(=O)c2ccncc2)cc(OC)c1OC [Compound 2c, N-(3-(2-isonicotinoylhydrazinyl)-3-oxo-1-(3,4,5-trimethoxyphenyl)prop-1-en-2-yl)-3,4,5-trimethoxybenzamide] | 13.2 ± 0.71 | 227 to 229
4 | COc1cc(C=C2N=C(c3cc(OC)c(OC)c(OC)c3)N(C(=O)c3cccc(OC(C)=O)c3)NC2=O)cc(OC)c1OC (hydrate or solvate) [Compound 7, 3-(6-oxo-5–(3,4,5-trimethoxybenzylidene)-3-(3,4,5-trimethoxyphenyl)-1,2,5,6-tetrahydro-1,2,4-triazine-2-carbonyl)phenyl acetate] |  | 199 to 201
5 | COc1cc(C=C(NC(=O)c2cc(OC)c(OC)c(OC)c2)C(=O)NNc2nc(-c3cccc([N+](=O)[O-])c3)cs2)cc(OC)c1OC [Compound 11d, 3,4,5-Trimethoxy-N-(3-(2-(4-(3-nitrophenyl)thiazol-2-yl)hydrazinyl)-3-oxo-1–(3,4,5-trimethoxyphenyl)prop-1-en-2-yl)benzamide] | 12.2 ± 0.65 | 212 to 214
6 | COc1cc(C=C(NC(=O)c2cc(OC)c(OC)c(OC)c2)C(=O)NNc2nc(-c3ccc(Br)cc3)cs2)cc(OC)c1OC [Compound 11c, N-(3-(2-(4-(4-bromophenyl)thiazol-2-yl)hydrazinyl)-3-oxo-1-(3,4,5-trimethoxyphenyl)prop-1-en-2-yl)-3,4,5-trimethoxybenzamide] | 25.7 ± 1.9 | 212 to 214
7 | COc1cc(C=C(NC(=O)c2cc(OC)c(OC)c(OC)c2)C(=O)NNC(=O)c2ccc(Br)cc2)cc(OC)c1OC [Compound 2b, N-(3-(2-(4-bromobenzoyl)hydrazinyl)-3-oxo-1-(3,4,5-trimethoxyphenyl)prop-1-en-2-yl)-3,4,5-trimethoxybenzamide] | 39.7 ± 1.8 | 236 to 238
8 | COc1cc(C=C2N=C(c3cc(OC)c(OC)c(OC)c3)N(N)C2=O)cc(OC)c1OC [Compound 5, 1-amino-4-(3,4,5-trimethoxybenzylidene)-2-(3,4,5-trimethoxyphenyl)-1H-imidazol-5(4H)-one] | 57.1 ± 3.23 | 205 to 207
9 | COc1cc(C=C(NC(=O)c2cc(OC)c(OC)c(OC)c2)C(=O)NNC(N)=S)cc(OC)c1OC [Compound 8, N-(3-(2-carbamothioylhydrazinyl)-3-oxo-1-(3,4,5-trimethoxyphenyl)prop-1-en-2-yl)-3,4,5-trimethoxybenzamide] | 31.5 ± 1.82 | 
10 | COc1cc(C=C2N=C(c3cc(OC)c(OC)c(OC)c3)N(c3nc(-c4ccc(Cl)cc4)cs3)NC2=O)cc(OC)c1OC [Compound 13b, 2-(4-(4-Chlorophenyl)thiazol-2-yl)-5-(3,4,5-trimethoxybenzylidene)-3-(3,4,5-trimethoxyphenyl)-1,2-dihydro-1,2,4-triazin-6(5H)-one] | 20.7 ± 1.58 | 212 to 214
11 | COc1cc(C=C(NC(=O)c2cc(OC)c(OC)c(OC)c2)C(=O)NNC(=O)c2cccc(O)c2)cc(OC)c1OC [Compound 2a, N-(3-(2-(3-hydroxybenzoyl)hydrazinyl)-3-oxo-1-(3,4,5-trimethoxyphenyl)prop-1-en-2-yl)-3,4,5-trimethoxybenzamide] | 21.7 ± 1.17 | 241 to 243
12 | COc1cc(C=C2N=C(c3cc(OC)c(OC)c(OC)c3)N(C(N)=S)NC2=O)cc(OC)c1OC (hydrate or solvate) [Compound 9, 6-oxo-5-(3,4,5-trimethoxybenzylidene)-3-(3,4,5-trimethoxyphenyl)-5,6-dihydro-1,2,4-triazine-2(1H)-carbothioamide] |  | 239 to 241
13 | CCOC(=O)Cc1csc(NNC(=O)C(=Cc2cc(OC)c(OC)c(OC)c2)NC(=O)c2cc(OC)c(OC)c(OC)c2)n1 [Compound 10, ethyl 2-(2-(2-(2-(3,4,5-trimethoxybenzamido)-3-(3,4,5-trimethoxyphenyl)acryloyl)hydrazinyl)thiazol-4-yl)acetate] | 4.8 ± 0.21 | 210 to 212
14 | COc1cccc(-c2csc(NNC(=O)C(=Cc3cc(OC)c(OC)c(OC)c3)NC(=O)c3cc(OC)c(OC)c(OC)c3)n2)c1 [Compound 11e, 3,4,5-Trimethoxy-N-(3-(2-(4-(3-methoxyphenyl)thiazol-2-yl)hydrazinyl)-3-oxo-1–(3,4,5-trimethoxyphenyl)prop-1-en-2-yl)benzamide] | > 100 | 212 to 214
15 | COc1cc(C=C(NC(=O)c2cc(OC)c(OC)c(OC)c2)C(=O)NNc2nc(-c3ccc(Cl)cc3)cs2)cc(OC)c1OC [Compound 11b, N-(3-(2-(4-(4-chlorophenyl)thiazol-2-yl)hydrazinyl)-3-oxo-1-(3,4,5-trimethoxyphenyl)prop-1-en-2-yl)-3,4,5-trimethoxybenzamide] | 8.59 ± 2.38 | 212 to 214
16 | COc1cc(C=C2N=C(c3cc(OC)c(OC)c(OC)c3)N(C(=O)c3cccc(OC(C)=O)c3)NC2=O)cc(OC)c1OC [Compound 7, 3-(6-oxo-5–(3,4,5-trimethoxybenzylidene)-3-(3,4,5-trimethoxyphenyl)-1,2,5,6-tetrahydro-1,2,4-triazine-2-carbonyl)phenyl acetate] | 13.7 ± 1.04 | 
17 | COc1cc(C=C2N=C(c3cc(OC)c(OC)c(OC)c3)N(c3nc(-c4ccccc4)cs3)NC2=O)cc(OC)c1OC [Compound 13a, 2-(4-Phenylthiazol-2-yl)-5-(3,4,5-trimethoxybenzylidene)-3–(3,4,5-trimethoxyphenyl)-1,2-dihydro-1,2,4-triazin-6(5H)-one] | 19.6 ± 1.42 | 212 to 214
18 | COc1cc(C=C2N=C(c3cc(OC)c(OC)c(OC)c3)NC2=O)cc(OC)c1OC [Compound 4, 4-(3,4,5-trimethoxybenzylidene)-2-(3,4,5-trimethoxyphenyl)-1H-imidazol-5(4H)-one] | 36.8 ± 2.81 | 212 to 214
19 | COc1cc(C=C2N=C(c3cc(OC)c(OC)c(OC)c3)N(c3nc(-c4ccc(Br)cc4)cs3)NC2=O)cc(OC)c1OC [Compound 13c, 2-(4-(4-Bromophenyl)thiazol-2-yl)-5-(3,4,5-trimethoxybenzylidene)-3-(3,4,5-trimethoxyphenyl)-1,2-dihydro-1,2,4-triazin-6(5H)-one] | 10.1 ± 0.54 | 212 to 214
20 | COc1cc(C=C2N=C(c3cc(OC)c(OC)c(OC)c3)N(c3nc(-c4cccc([N+](=O)[O-])c4)cs3)NC2=O)cc(OC)c1OC [Compound 13d, 2-(4-(3-Nitrophenyl)thiazol-2-yl)-5-(3,4,5-trimethoxybenzylidene)-3-(3,4,5-trimethoxyphenyl)-1,2-dihydro-1,2,4-triazin-6(5H)-one] | 3.16 ± 0.17 | 212 to 214
21 | COc1cc(C=C2N=C(c3cc(OC)c(OC)c(OC)c3)N(C(N)=S)NC2=O)cc(OC)c1OC [Compound 9, 6-oxo-5-(3,4,5-trimethoxybenzylidene)-3-(3,4,5-trimethoxyphenyl)-5,6-dihydro-1,2,4-triazine-2(1H)-carbothioamide] | 4.14 ± 0.22 | 
22 | COc1cccc(-c2csc(N3NC(=O)C(=Cc4cc(OC)c(OC)c(OC)c4)N=C3c3cc(OC)c(OC)c(OC)c3)n2)c1 [Compound 13e, 2-(4-(3-Methoxyphenyl)thiazol-2-yl)-5-(3,4,5-trimethoxybenzylidene)-3-(3,4,5-trimethoxyphenyl)-1,2-dihydro-1,2,4-triazin-6(5H)-one] | 33.5 ± 2.47 | 212 to 214
